Legend:
Type in all cases: cell-based
HCC70 = assay: Live cell number under carboplatin in HCC70 cells; conditions: 10 μM AP-18; carboplatin 72 h; HCC70, very low TRPA1
Protocol: (§1) For the measurements of live cell number and cell death under treatment with H2O2, diamide, or chemotherapies, cells were cultured on 96-well plates in the presence or absence of these drugs for indicated times and stained with 5 μM bisBenzimide H 33342 trihydrochloride (Hoechst; Sigma) and 5 μM propidium iodide (PI; Sigma) for 1 h at 37° C. Hoechst- and/or PI-positive cells were counted using a laser scanning cytometer, Acumen Cellista (TTPLabTech). Apoptotic cells induced by H2O2 treatment were measured by staining with Annexin V-Alexa Fluor® 488 conjugate (Life Technologies) and PI in Ca^2+-containing solution (10 mM HEPES pH 7.4, 140 mM NaCl; 2.5 mM CaCl2), followed by flow cytometric measurement of fluorescence using a FACSCalibur. Flow cytometry plots are representative of three independent experiments. […] Viable cells were counted using the Countless Automated Cell Counters (Thermo Fisher Scientific). […] Hoechst- and/or PI-positive areas were measured using Acumen Cellista. Apoptotic cells induced by detachment were measured by staining with 5 μM Hoechst and 5 μM of CellEvent™ Caspase-3/7 Green Detection Reagent (Thermo Fisher Scientific) for 1 h at 37° C. without enzymatic dissociation of cell clumps. Hoechst- and/or CellEvent™ Caspase-3/7 Green Detection Reagent-positive areas were measured using Acumen Cellista. […]

HCC1569 cells = assay: Soft agar anchorage-independent growth of HCC1569 cells
Protocol: Cells were added to the regular MCF-10A or HCC1569 growth media (±AP-18, A-967079, or Trolox) plus 0.4% low-melt agarose (Sigma) and layered onto a bed of growth media plus 0.5% low-melt agarose. Cells were fed every 4 days with growth media (±AP-18, A-967079, or Trolox) plus 0.4% low-melt agarose. At the indicated times, viable colonies were stained with iodonitrotetrazolium chloride (Sigma). Colony number and colony size were determined using ImageJ. Images shown are representative of at least three independent experiments.

HCC1569 spheroids = assay: [H2O2]i by Hyper-2 in HCC1569 spheroids; conditions: AP-18, 300 nM A-967079 or 5 mM NAC
Protocol: For the measurement of [H2O2]i levels in MCF-10A acini and HCC1569 spheroids, cells were transduced with a lentiviral vector encoding Hyper-2 or Hyper-2 (C199S). The Hyper-2 fluorescence was measured at 37° C. in HEPES-buffered saline (HBS) containing the following (in mM): 150 NaCl, 6 KCl, 1.2 MgSO4, 2 CaCl2, 11.5 glucose, and 25 HEPES (pH adjusted to 7.4 with NaOH). Fluorescence images of the cells were acquired through the Eclipse Ti-E microscope (Nikon) with ORCA-R2 cooled CCD camera (Hamamatsu Photonics) and analyzed with Metafluor image acquisition software (Molecular Devices). The 488:405-nm ratio images were obtained on a pixel-by-pixel basis. 3D images are shown as one section from midstructure. For the measurement of [H2O2]i levels in MCF-10A cells cultured in suspension, cell clumps were dissociated with trypsin and stained with 10 μM peroxy green-1 for 30 min at 37° C. Cells were then subjected to flow cytometric analysis (FACSCalibur; BD Biosciences). ROS levels determined by flow cytometry are reported as mean fluorescence intensity expressed in arbitrary units. Hyper-2 ratio images are representative from two independent experiments and averaged Hyper-2 ratio represents mean±SD from the sum of two independent experiments.

TRPA1 [1] = assay: [Ca2+]i by fura-2 in TRPA1-expressing MCF-10A 3D acini; conditions: inner ECM-deprived region of MCF-10A acini
Protocol: (§2) For the measurement of [Ca^2+]i levels in cells cultured in 2D or 3D (in Matrigel), cells were stained with 3.5 μM fura-2-AM (Life Technology) in the presence of 2.5 mM probenecid (Sigma) and 0.02% Pluronic F-127 (Sigma) for 45 min at 37° C. The fura-2 fluorescence was measured in HBS solution containing 1.25 mM probenecid at 37° C. Fluorescence images of the cells were acquired through the Eclipse Ti-E microscope with ORCA-R2 cooled CCD camera and analyzed with Metafluor. The 340:380-nm ratio images were obtained on a pixel-by-pixel basis and were converted to Ca^2+ concentrations by in vivo calibration using 5 μM ionomycin as described previously (Nishida et al., Biochem. Biophys. Res. Commun., 262:350-354, 1999). 3D images are shown as one section from midstructure. For the measurement of [Ca^2+]i levels in cells cultured in suspension, cell clumps were dissociated with trypsin and [Ca^2+]i levels were determined by using Fluo-4 NW Calcium Assay Kit (Molecular Probes). Cells were stained with Fluo-4 according to the manufacturer's instructions and subjected to flow cytometric analysis (FACSCalibur) using HBS as sheath fluid. [Ca^2+]i levels determined by flow cytometry are reported as mean fluorescence intensity expressed in arbitrary units. Time courses of [Ca^2+]i rises in 2D culture are representative of three independent experiments and averaged Δ[Ca^2+]i represents mean±SEM from the sum of three independent experiments. Fura-2 ratio images in 3D culture are representative of two independent experiments and averaged [Ca^2+]i in 3D culture represents mean±SEM from the sum of two independent experiments.

NSCLC cells = assay: H2O2- and carboplatin-induced cytotoxicity in NSCLC cells; conditions: TRPA1 expression-dependent
Protocol: as §1

TRPA1 [2] = biological target: T1, TRPA1 (Homo sapiens, UniProt O75762); assay: Ca2+ responses to carboplatin in HCC1569 cells; conditions: 10 μM AP-18 or 300 nM A-967079
T1 construct: endogenous in cells; host or cells: HCC1569 breast cancer cells (2D culture or 3D spheroids; shGFP or shTRPA1 transduced)
T1 sequence (O75762 whole entry): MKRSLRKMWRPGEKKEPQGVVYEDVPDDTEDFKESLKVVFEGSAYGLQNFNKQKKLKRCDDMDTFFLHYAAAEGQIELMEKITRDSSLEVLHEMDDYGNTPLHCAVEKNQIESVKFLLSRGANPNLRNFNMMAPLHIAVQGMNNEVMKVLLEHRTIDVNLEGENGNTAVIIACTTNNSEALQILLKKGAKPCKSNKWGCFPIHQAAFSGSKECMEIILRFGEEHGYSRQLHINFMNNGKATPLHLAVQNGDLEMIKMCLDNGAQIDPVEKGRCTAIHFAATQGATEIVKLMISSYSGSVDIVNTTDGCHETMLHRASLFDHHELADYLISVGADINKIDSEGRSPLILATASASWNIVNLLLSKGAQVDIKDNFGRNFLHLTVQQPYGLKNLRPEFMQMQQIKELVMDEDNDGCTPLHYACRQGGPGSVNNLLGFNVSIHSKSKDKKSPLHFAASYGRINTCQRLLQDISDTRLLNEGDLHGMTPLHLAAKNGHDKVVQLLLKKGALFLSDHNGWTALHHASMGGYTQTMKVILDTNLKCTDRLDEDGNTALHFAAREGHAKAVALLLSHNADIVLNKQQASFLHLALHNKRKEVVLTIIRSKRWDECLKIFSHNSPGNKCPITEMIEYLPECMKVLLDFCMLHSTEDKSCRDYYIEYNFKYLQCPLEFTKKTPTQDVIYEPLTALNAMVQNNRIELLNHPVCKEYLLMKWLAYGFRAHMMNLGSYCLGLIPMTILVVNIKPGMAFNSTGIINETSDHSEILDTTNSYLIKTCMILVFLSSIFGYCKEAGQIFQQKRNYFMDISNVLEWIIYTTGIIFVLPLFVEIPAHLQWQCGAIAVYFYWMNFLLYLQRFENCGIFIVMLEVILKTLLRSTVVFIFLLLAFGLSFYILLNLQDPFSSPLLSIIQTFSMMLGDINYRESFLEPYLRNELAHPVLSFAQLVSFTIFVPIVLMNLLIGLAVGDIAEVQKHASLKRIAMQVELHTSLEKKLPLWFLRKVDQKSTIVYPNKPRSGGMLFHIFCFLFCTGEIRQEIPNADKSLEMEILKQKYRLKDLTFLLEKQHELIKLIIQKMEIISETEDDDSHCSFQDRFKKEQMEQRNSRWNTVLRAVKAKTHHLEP
Protocol: as §2

TRPA1 [3] = biological target: T1, TRPA1; assay: [Ca2+]i by fura-2 in HCC1569 spheroids; conditions: AP-18, 300 nM A-967079 or 5 mM NAC
T1 sequence (O75762 682-1119 limits assumed): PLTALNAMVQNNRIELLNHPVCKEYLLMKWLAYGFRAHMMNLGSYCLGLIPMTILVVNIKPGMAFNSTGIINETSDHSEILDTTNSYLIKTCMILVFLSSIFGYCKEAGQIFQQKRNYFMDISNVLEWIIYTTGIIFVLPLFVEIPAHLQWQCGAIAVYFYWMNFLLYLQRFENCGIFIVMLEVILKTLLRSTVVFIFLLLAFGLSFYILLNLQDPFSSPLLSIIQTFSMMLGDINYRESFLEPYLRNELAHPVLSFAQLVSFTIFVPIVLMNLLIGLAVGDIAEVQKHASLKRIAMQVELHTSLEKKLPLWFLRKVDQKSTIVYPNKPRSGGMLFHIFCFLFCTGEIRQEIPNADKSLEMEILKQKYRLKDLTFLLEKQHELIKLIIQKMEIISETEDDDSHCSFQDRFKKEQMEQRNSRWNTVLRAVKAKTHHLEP
Protocol: as §2

AP-18
sensitization to carboplatin (HCC70): minimal to no effect | anchorage-independent growth (number and average size of colonies) (HCC1569 cells): impaired | increase in [H2O2]i (Hyper-2) in inner region of spheroids (HCC1569 spheroids): unaffected | TRPA1- or E681K-induced [Ca2+]i rises (TRPA1 [1]): abolished | sensitization to carboplatin-induced cytotoxicity (NSCLC cells; 10 μM AP-18, carboplatin 72 h): sensitized | sensitization to H2O2-induced cytotoxicity (NSCLC cells): sensitized | [Ca2+]i rises upon carboplatin treatment (TRPA1 [2]): significantly suppressed | oscillatory Ca2+ responses upon carboplatin treatment (TRPA1 [2]): significantly suppressed | elevated [Ca2+]i of inner cells of spheroids (TRPA1 [3]): suppressed
